The text below walks through data of PMC8757611, “Synthesis, biological evaluation, and molecular docking of new series of antitumor and apoptosis inducers designed as VEGFR-2 inhibitors” (Journal of Enzyme Inhibition and Medicinal Chemistry, 2022).

The IC50 is the concentration that gives 50% inhibition.

Experiment [1] has as its system HepG2. Description: Effect on apoptosis rate of HepG2 (Annexin V-FITC/PI). The class given is cell-based, human. How it is done:
Apoptosis ratio of HepG2 treated with 9.6 µg of compound 15d in comparison with untreated HepG2 cells was calculated according to the reported method using Annexin V fluorescein isothiocyanate (V-FITC)/PI kit[36].

Experiment [2] deals with Caspase-3. Put plainly: Apoptotic marker level in HepG2, Caspase-3. It counts as cell-based, human. To be noted: HepG2, at IC50, 24 h; control 49.6274. As for the experimental part: (§1) HepG2 cells were cultured and treated with compound 15d for 24 h. after that cells were collected and washed with PBS, then were collected and lysed by adding it to the extraction buffer containing protease inhibitors (1 ml per 1 × 10^6 cells.) then the lysate was diluted immediately before the assay. Caspase-3, BAX, Bcl-2, and p53 level was measured by using Quantikine-Human active kits (R&D Systems, Inc. Minneapolis, USA) according to the manufacturer protocols.

The subject of experiment [3] is Bcl-2. Put plainly: Apoptotic marker level in HepG2, Bcl-2. It counts as cell-based, human. To be noted: HepG2, at IC50, 24 h; control 5.761. How it is done:
as §1

In experiment [4] the test system is PC3. Put plainly: In vitro antitumor MTT assay, PC3. It counts as cell-based, human. To be noted: Homo sapiens, PC-3; MTT, mean ± S.D. of three experiments. As for the experimental part:
(§2) The antitumor assay was performed against the human cancer cell lines: HepG2, PC3, and MCF-7. The chemicals used in this test were supplied by Sigma-Aldrich with high analytical grade. National Cancer Institute (Cairo, Egypt) was the supplier of the cell lines tested which originally obtained from American Type Culture Collection (ATCC). MTT protocol was applied to quantitatively measure the antiproliferative activity of the new derivatives. In this test, the colour change is attributed to that the yellow tetrazolium bromide (MTT) is converted to formazan derivative which has purple colour. This biochemical reaction occurs only in viable cells by mitochondrial succinate dehydrogenase. The tested cells were initially cultured in RPMI-1640 medium with foetal bovine serum (10%). To the incubated cell, streptomycin (100 µg/mL) and penicillin (100 units/mL) were added in a 5% CO2 incubator at 37 °C. Then seeding of the cells was performed in a 96-well plate under 5% CO2 and at density of 1.0 × 10^4 cells/well at 37 °C for 48 h. Various non-toxic concentrations of the tested candidates were added and the cells were then incubated for further 24 h to the cells treated with the new compounds, MTT solution (20 µL at 5 mg/mL) was added, followed by 4 h incubation. One hundred microlitres of Dimethyl sulfoxide (DMSO) were added into each well to dissolve the purple formazan formed which is colorimetrically absorbed at 570 nm using a plate reader (EXL 800, USA). Finally, the percentages of cell viability was obtained as (A570 of treated samples/A570 of untreated sample) × 100.

Experiment [5] deals with T1, HER2 (Homo sapiens, UniProt P04626).
T1 construct: purchased Sigma
T1 sequence (P04626 23-1255): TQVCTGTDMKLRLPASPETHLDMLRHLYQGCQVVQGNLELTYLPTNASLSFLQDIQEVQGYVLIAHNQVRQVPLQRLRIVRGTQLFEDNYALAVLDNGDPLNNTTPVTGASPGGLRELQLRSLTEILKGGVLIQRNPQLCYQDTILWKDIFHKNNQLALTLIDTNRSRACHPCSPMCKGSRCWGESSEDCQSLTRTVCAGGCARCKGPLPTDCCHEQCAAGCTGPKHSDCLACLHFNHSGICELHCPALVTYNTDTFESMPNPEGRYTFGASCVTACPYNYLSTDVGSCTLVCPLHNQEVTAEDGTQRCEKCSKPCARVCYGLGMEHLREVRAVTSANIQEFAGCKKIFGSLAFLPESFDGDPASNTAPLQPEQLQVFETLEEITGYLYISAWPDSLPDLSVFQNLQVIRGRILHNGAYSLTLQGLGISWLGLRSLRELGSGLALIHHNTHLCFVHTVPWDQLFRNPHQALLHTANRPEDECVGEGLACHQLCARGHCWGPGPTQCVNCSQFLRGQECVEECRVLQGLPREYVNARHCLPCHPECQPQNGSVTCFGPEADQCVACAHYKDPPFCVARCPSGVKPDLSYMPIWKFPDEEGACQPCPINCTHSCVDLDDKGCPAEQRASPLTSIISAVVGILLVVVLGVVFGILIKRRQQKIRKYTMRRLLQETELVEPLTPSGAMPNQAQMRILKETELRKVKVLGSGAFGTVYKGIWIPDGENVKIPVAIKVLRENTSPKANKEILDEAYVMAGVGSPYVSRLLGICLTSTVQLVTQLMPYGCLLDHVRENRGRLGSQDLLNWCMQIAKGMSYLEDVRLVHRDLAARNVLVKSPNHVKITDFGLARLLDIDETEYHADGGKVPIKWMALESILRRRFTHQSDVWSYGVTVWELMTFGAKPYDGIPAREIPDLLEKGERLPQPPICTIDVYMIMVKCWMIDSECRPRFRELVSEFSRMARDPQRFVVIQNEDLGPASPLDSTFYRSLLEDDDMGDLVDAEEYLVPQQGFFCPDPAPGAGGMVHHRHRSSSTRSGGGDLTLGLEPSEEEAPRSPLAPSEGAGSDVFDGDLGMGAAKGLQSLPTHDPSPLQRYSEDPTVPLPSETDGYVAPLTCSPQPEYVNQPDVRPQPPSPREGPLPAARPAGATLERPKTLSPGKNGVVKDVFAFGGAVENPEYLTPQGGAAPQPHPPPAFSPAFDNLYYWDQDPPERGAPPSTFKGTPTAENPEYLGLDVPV
Put plainly: Multi-kinase assay (HTRF), HER2. The class given is biochemical. How it is done: (§3) Different kinases and ATP were obtained from Sigma. The specified kinase and its substrate was incubated with compound for 5 min in buffer solution to start the enzymatic reaction; ATP was then added to the reaction mixture and was maintained for 30 min at room temperature.
For orientation: In TR-FRET formats the signal depends on donor and acceptor labels being close together.

Experiment [6] relates to WI-38. Description: Cytotoxicity against normal lung fibroblasts (MTT). It counts as cell-based. Particulars: normal human lung fibroblasts. How it is done: as §2
Of note, the cytotoxicity against normal human lung fibroblasts cell line (WI-38) were examined for the nine selected compounds.

Experiment [7] has as its system human cancer cell lines HepG2, PC3, MCF-7. Put plainly: In vitro antitumor MTT assay, panel of HepG2, PC3 and MCF-7. The class given is cell-based. Particulars: range over HepG2, PC3 and MCF-7, read-out: IC50 against human cancer cell lines. As for the experimental part:
as §2

Experiment [8] has as its system MCF-7. Description: In vitro antitumor MTT assay, MCF-7. It counts as cell-based, human. To be noted: Homo sapiens, MCF7; MTT, mean ± S.D. of three experiments. As for the experimental part: as §2
Experiment [9] deals with HepG2. Put plainly: In vitro antitumor MTT assay, HepG2. It counts as cell-based, human. To be noted: Homo sapiens, HepG2; MTT, mean ± S.D. of three experiments. As for the experimental part:
as §2

Experiment [10] has as its system BAX. Description: Apoptotic marker level in HepG2, BAX. It counts as cell-based, human. To be noted: HepG2, at IC50, 24 h; control 40.62. How it is done:
as §1

Experiment [11] deals with FGFR. Put plainly: Multi-kinase assay (HTRF), FGFR. The class given is biochemical. How it is done: as §3
The subject of experiment [12] is HepG2. Put plainly: Effect on cell cycle of HepG2 (PI flow cytometry). It counts as cell-based, human. To be noted: at its IC50. As for the experimental part:
The protocol reported by Wang et al.[35] was followed to determine the effect of 15d on cell cycle of HepG2. The cancer cells (2 × 10^5 cells) were seeded and incubated in each of six-well plates for 24 h. The cells were further incubated at 37 °C and 5% CO2 after addition of foetal bovine serum (FBS, 10%). The medium was replaced by DMSO solution (1% v/v) in which 9.6 µg of compound 15d was dissolved. Well plates were then incubated for 48 h and then rinsed with cold phosphate-buffered saline (PBS), fixed with ethanol (70%) and washed again with PBS. DNA fluorochrome propidium iodide (PI) was used to stain the cells which were then kept for 15 min at 37 °C. FACS Calibre flow cytometer was used to analyse the samples.
In general terms: Flow cytometry measures light scatter and fluorescence of single cells or particles in a stream.

For experiment [13], the system named is P53. Put plainly: Apoptotic marker level in HepG2, p53. It counts as cell-based, human. To be noted: HepG2, at IC50, 24 h; control 42.84. How it is done:
as §1

Experiment [14] addresses T2, VEGFR-2 kinase (Homo sapiens, UniProt P35968).
T2 construct: purchased
Description: VEGFR-2 inhibition testing (ELISA kit). It counts as biochemical. As for the experimental part:
Enzyme linked immunosorbent assay (ELISA) technique was applied to human VEGFR-2 ELISA kit to calculate IC50 of all new derivatives against VEGFR-2 kinase. The antibody specific to the enzyme was planted on a 96 well microplate to which different micromolar concentrations of the positive control and the new compounds was added. […] Finally, stop solution (50 µL) was added and the reading was immediately determined at 450 nm. To get the standard curve, the concentrations used were presented on the X-axis and the corresponding absorbances were on the Y-axis.
For orientation: In an ELISA, binding on a coated surface is turned into a signal by an enzyme label.

T2 sequence (P35968 20-1356): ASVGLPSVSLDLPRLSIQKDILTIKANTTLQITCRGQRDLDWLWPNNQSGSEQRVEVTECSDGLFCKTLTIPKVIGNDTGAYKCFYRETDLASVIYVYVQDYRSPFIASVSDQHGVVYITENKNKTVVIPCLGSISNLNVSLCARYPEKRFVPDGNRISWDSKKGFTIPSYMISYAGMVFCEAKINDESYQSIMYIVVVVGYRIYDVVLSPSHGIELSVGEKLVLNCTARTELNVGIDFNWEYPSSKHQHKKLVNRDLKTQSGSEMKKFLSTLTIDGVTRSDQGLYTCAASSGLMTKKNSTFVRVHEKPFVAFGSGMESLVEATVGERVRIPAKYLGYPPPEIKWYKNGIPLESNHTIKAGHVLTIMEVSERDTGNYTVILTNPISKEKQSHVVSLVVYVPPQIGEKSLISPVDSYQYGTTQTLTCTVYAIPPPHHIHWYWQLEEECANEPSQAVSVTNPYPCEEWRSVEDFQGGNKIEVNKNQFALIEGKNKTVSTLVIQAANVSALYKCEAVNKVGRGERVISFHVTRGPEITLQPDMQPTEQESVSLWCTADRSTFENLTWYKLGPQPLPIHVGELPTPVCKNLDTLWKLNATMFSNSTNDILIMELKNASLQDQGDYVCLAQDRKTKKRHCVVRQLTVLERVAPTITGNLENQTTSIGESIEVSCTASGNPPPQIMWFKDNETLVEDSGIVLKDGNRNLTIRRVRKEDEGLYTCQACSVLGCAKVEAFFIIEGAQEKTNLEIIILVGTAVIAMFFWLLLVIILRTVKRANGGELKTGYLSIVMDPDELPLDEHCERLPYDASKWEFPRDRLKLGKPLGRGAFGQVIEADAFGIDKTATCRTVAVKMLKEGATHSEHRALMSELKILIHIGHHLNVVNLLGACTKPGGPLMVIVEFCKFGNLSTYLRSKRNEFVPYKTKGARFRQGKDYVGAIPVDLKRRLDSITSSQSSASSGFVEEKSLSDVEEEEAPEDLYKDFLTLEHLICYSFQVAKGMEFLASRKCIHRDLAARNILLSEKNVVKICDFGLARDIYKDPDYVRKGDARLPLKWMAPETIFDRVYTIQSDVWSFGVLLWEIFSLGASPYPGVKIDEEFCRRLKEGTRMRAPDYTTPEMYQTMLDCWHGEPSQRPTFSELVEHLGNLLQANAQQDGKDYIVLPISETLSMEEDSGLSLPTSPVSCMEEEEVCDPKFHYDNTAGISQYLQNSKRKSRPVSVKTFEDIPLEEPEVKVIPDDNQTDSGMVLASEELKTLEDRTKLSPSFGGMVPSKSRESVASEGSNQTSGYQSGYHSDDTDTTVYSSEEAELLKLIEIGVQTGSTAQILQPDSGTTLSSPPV

As for `O=C(Nc1ccc(Oc2nc(Cl)nc3ccccc23)cc1)c1cccnc1` [Compound 15d, N-(4-((2-Chloroquinazolin-4-yl)oxy)phenyl)nicotinamide], the “% Apoptosis Late” value in experiment [1] (HepG2, at IC50, control 0.33) was 7.13%. The “% Apoptosis Early” value in experiment [1] (HepG2, at IC50, control 0.87) is listed as 5.33%. For the same compound, in experiment [1] (HepG2, at IC50, control 1.17), the “% Necrosis” value was 2.35%. Besides, the “Total (apoptosis and necrosis)” value in experiment [1] (HepG2, at IC50, control 2.37) was 14.81%. Further, the “fold increase in apoptosis of HepG2” value in experiment [1] (at IC50, versus control) was determined as 10 folds. Further, the “apoptosis rate of HepG2” value in experiment [1] (at IC50, control […]) was found to be 12.46%. In addition, the Casp3 level in experiment [2] is reported as 561.427 pg/mL. The Bcl-2 level in [3] turned out to be 1.385 pg/mL. Further, the IC50 in [4] was 40.9 ± 3.46 µM; in experiment [5], 0.253 ± 0.0016 µM; in experiment [6], 221 ± 2.55 µM; in [7], 17.4 to 47.1 µM; in experiment [8], 33.4 ± 2.92 µM; in experiment [9] it was 24.1 ± 2.12 µM. For the same compound, the IC50 in experiment [11] was 0.381 ± 0.0018 µM; in experiment [14], 0.06 ± 0.00145 µM. The compound further gave a BAX level in experiment [10] of 395.04 pg/mL. Further, the “cell cycle phases in which growth of HepG2 is stopped” value in [12] is “both G2/M and pre G1 phases”. The same compound returned a P53 level in [13] of 415.027 pg/mL.
